Experimental data from patent publication US6605424B1, “Method of detecting inhibitors of agonist-specific desensitization” (Duke University, priority 1989, dated 2003).
Where “and” joins values, the source holds several entries; their conditions need not be identical. Identical values can stand only once. Residues, ends and D or L forms follow the SMILES beside them. No end group written: not given here.

Columns and labels:
[1] = target: T1, βAR kinase (Bos taurus, UniProt P21146); experiment: Phosphorylation of rhodopsin (urea-treated rod outer segments) by βAR kinase; assay type: biochemical, bovine; conditions: for inhibition of βAR kinase: polycations, FIG. 3; for Hill coefficient of inhibition: data of FIG. 1
T1 construct: βAR kinase was purified from bovine cerebral cortex; from tissue; host or cells: bovine cerebral cortex
T1 sequence (P21146 1-689): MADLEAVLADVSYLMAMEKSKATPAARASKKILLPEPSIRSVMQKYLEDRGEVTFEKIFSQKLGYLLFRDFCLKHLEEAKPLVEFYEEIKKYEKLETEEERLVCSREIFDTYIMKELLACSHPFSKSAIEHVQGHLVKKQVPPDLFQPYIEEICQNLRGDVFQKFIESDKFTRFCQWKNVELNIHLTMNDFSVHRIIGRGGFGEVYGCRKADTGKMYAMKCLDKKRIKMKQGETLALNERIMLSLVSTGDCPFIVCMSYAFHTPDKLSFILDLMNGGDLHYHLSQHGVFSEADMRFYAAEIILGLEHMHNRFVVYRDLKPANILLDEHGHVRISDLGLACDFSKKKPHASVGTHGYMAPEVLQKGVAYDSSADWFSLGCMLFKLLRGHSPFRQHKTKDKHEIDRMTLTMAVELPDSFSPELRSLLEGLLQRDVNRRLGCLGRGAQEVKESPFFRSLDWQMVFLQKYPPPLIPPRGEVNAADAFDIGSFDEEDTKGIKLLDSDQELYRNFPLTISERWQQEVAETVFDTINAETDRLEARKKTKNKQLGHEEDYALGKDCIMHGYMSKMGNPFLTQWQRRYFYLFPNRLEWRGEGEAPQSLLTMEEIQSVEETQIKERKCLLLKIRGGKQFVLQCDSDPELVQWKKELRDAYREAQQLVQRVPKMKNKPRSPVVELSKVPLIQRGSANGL
Protocol: βAR kinase was purified from bovine cerebral cortex by modification of procedure of Benovic et al (J. Biol. Chem. (1987) 262:9026-9032). Briefly, 250 g of bovine cerebral cortex were homogenized with a Brinkmann tissue disrupter and centrifuged (40,000×g, 30 min). The supernatant was then precipitated with 13-26% ammonium sulfate. This material was initially chromatographed on a Ultrogel AcA34 column equilibrated with 5 mM Tris-HCl, pH 7.5, 2 mM EDTA, 10 μg/ml leupeptin, 5 μg/ml pepstatin, 10 μg/ml benzamidine, 0.2 mM phenylmethylsulfonyl fluoride (buffer A). The peak activity was diluted with an equal volume of buffer A containing 0.04% Triton X-100 before being applied to a DEAE-Sephacel column. Elution was accomplished with a 0-80 mM NaCl gradient in buffer A containing 0.02% Triton X-100. The peak activity was then applied to a CM-Fractogel column and eluted with a 0-100 mM NaCl gradient in buffer A containing 0.02% Triton X-100. The purified kinase is stable at 4° C. for several months. For these studies the βAR kinase preparations were >75% pure.
Rod outer segments were prepared from bovine retinas by stepwise sucrose gradient centrifugation (Wilden et al Biochemistry (1982) 21:3014-3022). Rhodopsin kinase-free rod outer segments were prepared by treatment with 5 M urea (Shichi et al J. Biol. Chem. (1978) 253:7040-7046) and consisted of ˜95% rhodopsin, as assessed by Coomassie Blue staining of sodium dodecyl sulfate-polyacrylamide gels.
Urea-treated rod outer segments were phosphorylated with βAR kinase as follows. Urea-treated rod outer segments (˜4 μg of rhodopsin) were incubated with βAR kinase (˜0.1 μg) for 10-15 min at 30° C. in the presence of 40 mM Tris-HCl, pH 7.4, 10 mM NaCl, 5 mM MgCl2, 1.5 mM EDTA, and 65 μM ATP (˜1 cpm/fmol) (total reaction volume was 40 μl). Reactions were stopped by the addition of 40 μl of sodium dodecyl sulfate sample buffer (see below) followed by sodium dodecyl sulfate-polyacrylamide gel electrophoresis. After autoradiography, the phosphorylated rhodopsin bands were excised and counted.
Sodium dodecyl sulfate-polyacrylamide gel electrophoresis was performed by the method of Laemmli (Nature (1970) 227:680-685) using 10% homogeneous polyacrylamide slab gels. Sample buffer contained 8% sodium dodecyl sulfate, 10% glycerol, 5% 3-mercaptoethanol, 25 mM Tris-HCl, pH 6.5, and 0.003% bromphenol blue. After electrophoresis, gels were dried with a Bio-Rad gel dryer prior to autoradiography.

[2] = target: T1, βAR kinase; experiment: Inhibition of β2AR phosphorylation by βAR kinase by synthetic peptides (Example III); assay type: biochemical, bovine; conditions: for inhibition of β2AR phosphorylation: tested at ˜0.5 mM
Protocol: FIG. 13. Inhibition of β2AR phosphorylation by synthetic peptides. Reconstituted β2AR (˜0.4 pmol) was incubated for 30 min at 30° with purified βAR kinase (˜30 ng) in the presence of 50 mM Tris-HCl, pH 7.5, 2 mM EDTA, 10 mM NaCl, 5 mM MgCl2, 5 mM sodium phosphate, 50 μM (−)-isoproterenol and 0.10 mM [γ^32P]ATP (2.0 cpm/fmol). Synthetic β2AR peptides were varied from 0 to 1 mM and included CI (Δ), CII (▴), CIII-2 (◯) and CT-1 (●). Reactions were stopped by the addition of […]. ^32P-labeled receptor was determined by cutting and counting the dried gel following autoradiography.
The β2-adrenergic receptor from hamster lung was purified to apparent homogeneity by sequential affinity and high performance liquid chromatography as described (Benovic et al (1984) Biochemistry 23:4510-4518). The purified receptor was reinserted into phosphatidylcholine vesicles as previously described (Cerione et al (1983) Nature 306:562-566). The protein-lipid pellets were resuspended in 20 mM Tris-HCl, pH 7.2, 2 mM EDTA and used as a substrate for the βAR kinase.
βAR kinase was purified from bovine cerebral cortex by modification of a previously described procedure (Benovic et al (1987) J. Biol. Chem. 262:9026-9032). Briefly, 250 g of bovine cortex was homogenized and the resulting high speed supernatant fraction was precipitated with 13-26% ammonium sulfate. This material was initially chromatographed on an Ultrogel AcA34 column equilibrated with 5 mM Tris-HCl, pH 7.5, 2 mM EDTA, 5 μg/ml leupeptin, 5 μg/ml pepstatin, 15 μg/ml benzamidine, 0.2 mM phenylmethyl sulfonyl fluoride (buffer A). The peak activity was diluted 1:1 with buffer A containing 0.02% triton X-100 and applied to a DEAE Sephacel column. Elution was accomplished with a 0-80 mM NaCl gradient in buffer A containing triton X-100. The peak activity was then applied directly to a CM Fractogel column and eluted with a 0-100 mM NaCl gradient in buffer A containing triton X-100. The purified kinase was stored at 4° C.
The inhibition of substrate phosphorylation by βAR kinase in the presence of synthetic peptides was assayed as follows. Reconstituted βAR (0.2-1 pmol/inclubation) was incubated with βAR kinase (10-30 ng) in a buffer containing 50 mM Tris-HCl, pH 7.5, 2 mM EDTA, 10 mM NaCl, 5 mM MgCl2, 5 mM sodium phosphate, 50 μM (−)-isoproterenol, 0.10 mM [γ-^32P]ATP (1-3 cpm/fmol) at 30° C. for 30 min. Synthetic β2AR peptides were varied in concentration from 0 to 2 mM. Reactions were quenched by the addition of SDS sample buffer followed by gel electrophoresis. In some experiments urea treated rod outer segments (Wilden et al (1982) Biochemistry 21:3014-3022; Shichi et al (1978) J. Biol. Chem. 253:7040-7046) were used as the substrate for βAR kinase. To further define the specificity of the peptide inhibition, phosvitin, casein (see Example I) and the synthetic peptides CT-2 and CT-3 were used as substrates for βAR kinase.
SDS polyacrylamide gel electrophoresis was performed by the method of Laemmli (Nature (1970) 227:[…]) using 10 or 15% homogeneous slab gels. SDS sample buffer contained 8% SDS, 10% glycerol, 5% β-mercaptoethanol, 25 mM Tris-HCl, pH 6.5 and 0.003% bromphenol blue. SDS urea polyacrylamide gel electrophoresis was carried out using 6.5 M urea, 0.1% SDS, 100 mM H3PO4, pH 6.8 with Tris-HCl and 9% acrylamide (Swank et al (1971) Anal. Biochem. 39:462). SDS urea sample buffer contained 1% SDS, 8M urea, 10 mM H3PO4, pH 6.8 with Tris-HCl, 1% β-mercaptoethanol and 0.003% bromphenol blue.

[3] = read-out: IC50 (concentration of compound which gave 50% inhibition of βAR kinase), rhodopsin as substrate
[4] = rhodopsin as substrate, mean ± S.E.
[5] = IC50 (concentration of compound which gave 50% inhibition of βAR kinase), rhodopsin as substrate
[6] = IC50 (concentration of compound which gave 50% inhibition of βAR kinase), rhodopsin as substrate, mean ± S.E.
[7] = β2AR as substrate, read-out: IC50 (μM), first intracellular loop peptides as inhibitors of βAR kinase
[8] = hamster β2AR peptides, ND = no significant inhibition at ˜500 μM, read-out: IC50 (μM), inhibition of β2AR phosphorylation by βAR kinase

With `O=C(O)C(COP(=O)(O)O)OP(=O)(O)O` (centres unmarked) [2,3-Diphosphoglycerate, 2,3-diphosphoglycerate] the IC50 [1, 3] was 1100 µM, the “concentration range of inhibition” value ([1]; rhodopsin as substrate) was “millimolar range” and the “IC50 (concentration of compound which gave 50% inhibition of βAR kinase)” value [1, 4] was 838 µg/mL.

In the case of `CC[C@H](C)[C@H](NC(=O)[C@H](C)NC(=O)[C@H](CCCCN)NC(=O)[C@H](CCC(N)=O)NC(=O)[C@H](Cc1c[nH]cn1)NC(=O)[C@@H](N)[C@@H](C)O)C(=O)N[C@@H](CC(=O)O)C(=O)N[C@@H](CS)C(=O)N[C@@H](Cc1ccc(O)cc1)C(=O)N[C@@H](Cc1c[nH]cn1)C(=O)N[C@@H](CCCCN)C(=O)N[C@@H](CCC(=O)O)C(=O)N[C@H](C(=O)N[C@@H](CS)C(=O)O)[C@@H](C)O` [EII (177-190)] (H-THQKAIDCYHKETC-OH; N-terminus and C-terminus assumed), the “inhibition of β2AR phosphorylation” value [2] is reported as “do not inhibit”.

In the case of `O=S(=O)(O)NC1C(O)OC(COS(=O)(=O)O)C(O)C1O` (centres unmarked) [Glucosamine 2,6-disulfate, glucosamine 2,6-disulfate], the IC50 [1, 3] is reported as 7300 µM, the “concentration range of inhibition” value ([1]; rhodopsin as substrate) is reported as “millimolar range” and the “IC50 (concentration of compound which gave 50% inhibition of βAR kinase)” value [1, 4] is reported as 2800 µg/mL.

Molecule `O=P(O)(O)O[C@H]1[C@H](OP(=O)(O)O)[C@@H](OP(=O)(O)O)[C@H](OP(=O)(O)O)[C@@H](OP(=O)(O)O)[C@H]1OP(=O)(O)O` [Inositol hexaphosphate, inositol hexaphosphate] has an IC50 [1, 5] of 3600 µM and an IC50 [1, 6] of 5040 µM.

With `O=S(=O)(O)OC1C(OS(=O)(=O)O)C(OS(=O)(=O)O)C(OS(=O)(=O)O)C(OS(=O)(=O)O)C1OS(=O)(=O)O` (centres unmarked) [Inositol hexasulfate, inositol hexasulfate] the IC50 [1, 5] was 13.5 µM, the IC50 [1, 6] was 18.2 µM and the “times more potent than inositol hexaphosphate” value ([1]; rhodopsin as substrate) was about 270 times.

For `Cc1ncc(COP(=O)(O)O)c(C=O)c1O` [Pyridoxal phosphate, pyridoxal phosphate], the IC50 [1, 5] was 900 µM, the IC50 [1, 6] was 898 µM and the “concentration range of inhibition” value ([1]; rhodopsin as substrate) was “millimolar range”.

In the case of `NCCCNCCCCNCCCN` [Spermine, spermine], the “inhibition of βAR kinase” value [1] is reported as “weak inhibitors”.

With `NCCCCNCCCN` [spermidine] the “inhibition of βAR kinase” value [1] was “weak inhibitors”.

Molecule “AIAAFEALQTVTNYF [β2AR (57-71, K → A, R → A)]” has an IC50 [2, 7] of 88 µM.

“AIAKFERAQTVTAYF [β2AR (57-71, L → A, N → A)]” gave an IC50 [2, 7] of 43 µM.

“AIAKFQRLQTVTNYF [β2AR (57-71, E → Q), AIAKFORLQTVTNYF]” was tested, and the IC50 [2, 7] was 280 µM.

Work on AIAKTPRLQTLTNLF [β1AR] yielded an IC50 [2, 7] of 700 µM.

AVFTSRALKAPQNLF [α2AR] was tested, and the IC50 [2, 7] was over 1000 µM.

KFERLQT [β2AR (60-66), KFERLQT] was tested, and the IC50 [2, 7] was 2600 µM.

Molecule KMWNFGNFWC [EI (97-106)] has an IC50 [2, 8] of 300 µM.

In the case of SHVPDHDVTEERDEAW [NT (17-32)], the “inhibition of β2AR phosphorylation” value [2] is reported as “do not inhibit”.

In the case of TAIAKFERLQTVTNYFITS [β2AR (56-74)], the IC50 [2, 8] is reported as ~40 µM and 40 µM and the IC50 [2, 7] is reported as 40 µM.

VTVQHKKLRTPLNYI [Rhodopsin] gave an IC50 [2, 7] of over 1000 µM.

With chondroitin sulfate B the “IC50 (concentration of compound which gave 50% inhibition of βAR kinase)” value [1, 4] was 25 µg/mL.

chondroitin sulfate C was tested, and the “IC50 (concentration of compound which gave 50% inhibition of βAR kinase)” value [1, 4] was 6 µg/mL.

de-N-sulfated heparin was tested, and the “Hill coefficient of inhibition” value [1] was about 2, the “fold weaker than heparin” value ([1]; rhodopsin as substrate) was about 8 fold and the “IC50 (concentration of compound which gave 50% inhibition of βAR kinase)” value [1, 4] was 6.0 ± 2.4 µg/mL.

With dextran sulfate the “Hill coefficient of inhibition” value [1] was about 2, the IC50 [1, 3] was 0.15 µM and the “IC50 (concentration of compound which gave 50% inhibition of βAR kinase)” value [1, 4] was 0.76 ± 0.21 µg/mL.

In the case of heparan sulfate, the “IC50 (concentration of compound which gave 50% inhibition of βAR kinase)” value [1, 4] is reported as 1.8 µg/mL.

With polyaspartic acid the IC50 [1, 3] was 1.3 µM and the “IC50 (concentration of compound which gave 50% inhibition of βAR kinase)” value [1, 4] was 14 µg/mL.

polyglutamic acid was tested, and the IC50 [1, 3] was 2 µM and the “IC50 (concentration of compound which gave 50% inhibition of βAR kinase)” value [1, 4] was 27 ± 2 µg/mL.
